Key:
Assay type in all cases: in vivo
[1] = tested on: redroot pigweed (Amaranthus retroflexus, AMARE); assay: Pre-emerge test, greenhouse herbicide activity screening; conditions: rated 14 days after application, 0 = no damage, 100 = complete death
How it was run: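 Herbicidal damage is scored 0 (none) to 100 (complete plant death) two weeks after a simulated field spray. Rates span 15–1000 g ai/ha, delivered in acetone at 187 l/ha. For post-emergence treatments, plants have 2–3 leaves and the spray carries 0.25% v/v non-ionic surfactant.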

[2] = tested on: green foxtail (Setaria viridis, SETVI); assay: Post-emerge test, greenhouse herbicide activity screening; conditions: post-emerge, 14 days after application, rating scale 0-100
How it was run: (§1)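 Compounds in acetone were track-sprayed at 15–1000 g ai/ha: pre-emergence onto soil sown the previous day, then top-watered to incorporate and later bottom-watered; post-emergence onto 2–3 leaf plants with 0.25% v/v surfactant, bottom-watered only. Ratings on a 0–100 phytotoxicity scale were taken at day 14.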

[3] = tested on: lambsquarters (Chenopodium album, CHEAL); assay: as above; conditions: post-emerge, 14 days after application, rating scale 0-100
How it was run: as §1

[4] = tested on: redroot pigweed (Amaranthus retroflexus, AMARE); assay: as above; conditions: post-emerge, 14 days after application, rating scale 0-100
How it was run: as §1

[5] = tested on: large crabgrass (Digitaria sanguinalis, DIGSA); assay: as above; conditions: post-emerge, 14 days after application, rating scale 0-100
How it was run: as §1

[6] = tested on: ivyleaf morningglory (Ipomoea hederacea, IPOHE); assay: as above; conditions: post-emerge, 14 days after application, rating scale 0-100
How it was run: as §1

[7] = tested on: johnsongrass (Sorghum halepense, SORHA); assay: as above; conditions: post-emerge, 14 days after application, rating scale 0-100
How it was run: as §1

[8] = tested on: velvetleaf (Abutilon theophrasti, ABUTH); assay: as above; conditions: post-emerge, 14 days after application, rating scale 0-100
How it was run: as §1

[9] = tested on: sicklepod (Cassia obtusifolia, CASOB); assay: as above; conditions: post-emerge, 14 days after application, rating scale 0-100
How it was run: as §1

[10] = tested on: barnyardgrass (Echinochloa crus-galli, ECHCG); assay: as above; conditions: post-emerge, 14 days after application, rating scale 0-100
How it was run: as §1

[11] = tested on: green foxtail (Setaria viridis, SETVI); assay: Pre-emerge test, greenhouse herbicide activity screening; conditions: rated 14 days after application, 0 = no damage, 100 = complete death
How it was run: (§2)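 Compounds in acetone were track-sprayed at 15-1000 g ai/ha (187 l/ha) on sandy loam pots: pre-emerge one day after seeding, post-emerge at 2-3 leaf stage with 0.25% v/v non-ionic surfactant. Phytotoxicity was rated 14 days later on a 0 (no damage) to 100 (complete death) scale.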

[12] = tested on: lambsquarters (Chenopodium album, CHEAL); assay: as above; conditions: rated 14 days after application, 0 = no damage, 100 = complete death
How it was run: as §2

[13] = tested on: large crabgrass (Digitaria sanguinalis, DIGSA); assay: as above; conditions: rated 14 days after application, 0 = no damage, 100 = complete death
How it was run: as §2

[14] = tested on: ivyleaf morningglory (Ipomoea hederacea, IPOHE); assay: as above; conditions: rated 14 days after application, 0 = no damage, 100 = complete death
How it was run: as §2

[15] = tested on: johnsongrass (Sorghum halepense, SORHA); assay: as above; conditions: rated 14 days after application, 0 = no damage, 100 = complete death
How it was run: as §2

[16] = tested on: velvetleaf (Abutilon theophrasti, ABUTH); assay: as above; conditions: rated 14 days after application, 0 = no damage, 100 = complete death
How it was run: as §2

[17] = tested on: sicklepod (Cassia obtusifolia, CASOB); assay: as above; conditions: rated 14 days after application, 0 = no damage, 100 = complete death
How it was run: as §2

[18] = tested on: barnyardgrass (Echinochloa crus-galli, ECHCG); assay: as above; conditions: rated 14 days after application, 0 = no damage, 100 = complete death
How it was run: as §2

[19] = tested on: field corn (Zea mays L., var. Dekalb 535, CORN); assay: Pre-emerge test, crop safety; conditions: rated 14 days after application, 0 = no damage, 100 = complete death
How it was run: (§3)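 Rating: 0–100 visual injury, 14 DAA. Application: acetone, 187 l/ha, 15–1000 g ai/ha, flat-fan track sprayer with nozzle 40–45 cm above soil or canopy. Post-emerge runs used 0.25% v/v surfactant on 2–3 leaf plants.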

[20] = tested on: upland rice (Oryza sp., var. Tebonnet, RICE); assay: Pre-emerge test, crop safety; conditions: rated 14 days after application, 0 = no damage, 100 = complete death
How it was run: as §3

[21] = tested on: field corn (Zea mays L., var. Dekalb 535, CORN); assay: Post-emerge test, crop safety; conditions: post-emerge, 14 days after application, rating scale 0-100
How it was run: as §2

[22] = tested on: upland rice (Oryza sp., var. Tebonnet, RICE); assay: Post-emerge test, crop safety; conditions: post-emerge, 14 days after application, rating scale 0-100
How it was run: as §2

COc1c(Cl)cc(F)c(-n2c(=O)cc(C(F)(F)F)n(C)c2=O)c1NC(=O)C=Cc1ccccc1 [2-78]
Pre-emerge Herbicidal Activity, phytotoxicity rating (0-100), AMARE ([1]; 63 g ai/ha): 100 | Pre-emerge Herbicidal Activity, phytotoxicity rating (0-100), AMARE ([1]; 250 g ai/ha): 100 | phytotoxicity rating SETVI ([2]; 63 g ai/ha): 30 | phytotoxicity rating SETVI ([2]; 250 g ai/ha): 30 | phytotoxicity rating CHEAL ([3]; 63 g ai/ha): 100 | phytotoxicity rating CHEAL ([3]; 250 g ai/ha): 100 | phytotoxicity rating AMARE ([4]; 63 g ai/ha): 100 | phytotoxicity rating AMARE ([4]; 250 g ai/ha): 100 | phytotoxicity rating DIGSA ([5]; 63 g ai/ha): 0 | phytotoxicity rating DIGSA ([5]; 250 g ai/ha): 0 | phytotoxicity rating IPOHE ([6]; 63 g ai/ha): 80 | phytotoxicity rating IPOHE ([6]; 250 g ai/ha): 100 | phytotoxicity rating SORHA ([7]; 63 g ai/ha): 0 | phytotoxicity rating SORHA ([7]; 250 g ai/ha): 10 | phytotoxicity rating ABUTH ([8]; 63 g ai/ha): 100 | phytotoxicity rating ABUTH ([8]; 250 g ai/ha): 100 | phytotoxicity rating CASOB ([9]; 63 g ai/ha): 70 | phytotoxicity rating CASOB ([9]; 250 g ai/ha): 100 | phytotoxicity rating ECHCG ([10]; 63 g ai/ha): 10 | phytotoxicity rating ECHCG ([10]; 250 g ai/ha): 10 | Pre-emerge Herbicidal Activity, phytotoxicity rating (0-100), SETVI ([11]; 63 g ai/ha): 90 | Pre-emerge Herbicidal Activity, phytotoxicity rating (0-100), SETVI ([11]; 250 g ai/ha): 100 | Pre-emerge Herbicidal Activity, phytotoxicity rating (0-100), CHEAL ([12]; 63 g ai/ha): 100 | Pre-emerge Herbicidal Activity, phytotoxicity rating (0-100), CHEAL ([12]; 250 g ai/ha): 100 | Pre-emerge Herbicidal Activity, phytotoxicity rating (0-100), DIGSA ([13]; 63 g ai/ha): 30 | Pre-emerge Herbicidal Activity, phytotoxicity rating (0-100), DIGSA ([13]; 250 g ai/ha): 100 | Pre-emerge Herbicidal Activity, phytotoxicity rating (0-100), IPOHE ([14]; 63 g ai/ha): 20 | Pre-emerge Herbicidal Activity, phytotoxicity rating (0-100), IPOHE ([14]; 250 g ai/ha): 100 | Pre-emerge Herbicidal Activity, phytotoxicity rating (0-100), SORHA ([15]; 63 g ai/ha): 10 | Pre-emerge Herbicidal Activity, phytotoxicity rating (0-100), SORHA ([15]; 250 g ai/ha): 80 | Pre-emerge Herbicidal Activity, phytotoxicity rating (0-100), ABUTH ([16]; 63 g ai/ha): 100 | Pre-emerge Herbicidal Activity, phytotoxicity rating (0-100), ABUTH ([16]; 250 g ai/ha): 100 | Pre-emerge Herbicidal Activity, phytotoxicity rating (0-100), CASOB ([17]; 63 g ai/ha): 100 | Pre-emerge Herbicidal Activity, phytotoxicity rating (0-100), CASOB ([17]; 250 g ai/ha): 100 | Pre-emerge Herbicidal Activity, phytotoxicity rating (0-100), ECHCG ([18]; 63 g ai/ha): 10 | Pre-emerge Herbicidal Activity, phytotoxicity rating (0-100), ECHCG ([18]; 250 g ai/ha): 100 | Pre-emerge phytotoxicity rating (0-100), crop damage, CORN ([19]; 63 g ai/ha): 0 | Pre-emerge phytotoxicity rating (0-100), crop damage, CORN ([19]; 250 g ai/ha): 10 | Pre-emerge phytotoxicity rating (0-100), crop damage, RICE ([20]; 63 g ai/ha): 40 | Pre-emerge phytotoxicity rating (0-100), crop damage, RICE ([20]; 250 g ai/ha): 95 | phytotoxicity rating CORN ([21]; 63 g ai/ha): 25 | phytotoxicity rating CORN ([21]; 250 g ai/ha): 30 | phytotoxicity rating RICE ([22]; 63 g ai/ha): 50 | phytotoxicity rating RICE ([22]; 250 g ai/ha): 65

COc1c(Cl)cc(F)c(-n2c(=O)cc(C(F)(F)F)n(C)c2=O)c1NC(=O)C(C)=Cc1ccccc1 [2-81]
Pre-emerge Herbicidal Activity, phytotoxicity rating (0-100), AMARE ([1]; 63 g ai/ha): 100 | Pre-emerge Herbicidal Activity, phytotoxicity rating (0-100), AMARE ([1]; 250 g ai/ha): 100 | phytotoxicity rating SETVI ([2]; 63 g ai/ha): 40 | phytotoxicity rating SETVI ([2]; 250 g ai/ha): 60 | phytotoxicity rating CHEAL ([3]; 63 g ai/ha): 90 | phytotoxicity rating CHEAL ([3]; 250 g ai/ha): 100 | phytotoxicity rating AMARE ([4]; 63 g ai/ha): 100 | phytotoxicity rating AMARE ([4]; 250 g ai/ha): 100 | phytotoxicity rating DIGSA ([5]; 63 g ai/ha): 20 | phytotoxicity rating DIGSA ([5]; 250 g ai/ha): 80 | phytotoxicity rating IPOHE ([6]; 63 g ai/ha): 100 | phytotoxicity rating IPOHE ([6]; 250 g ai/ha): 100 | phytotoxicity rating SORHA ([7]; 63 g ai/ha): 20 | phytotoxicity rating SORHA ([7]; 250 g ai/ha): 80 | phytotoxicity rating ABUTH ([8]; 63 g ai/ha): 100 | phytotoxicity rating ABUTH ([8]; 250 g ai/ha): 100 | phytotoxicity rating CASOB ([9]; 63 g ai/ha): 70 | phytotoxicity rating CASOB ([9]; 250 g ai/ha): 100 | phytotoxicity rating ECHCG ([10]; 63 g ai/ha): 50 | phytotoxicity rating ECHCG ([10]; 250 g ai/ha): 90 | Pre-emerge Herbicidal Activity, phytotoxicity rating (0-100), SETVI ([11]; 63 g ai/ha): 100 | Pre-emerge Herbicidal Activity, phytotoxicity rating (0-100), SETVI ([11]; 250 g ai/ha): 100 | Pre-emerge Herbicidal Activity, phytotoxicity rating (0-100), CHEAL ([12]; 63 g ai/ha): 100 | Pre-emerge Herbicidal Activity, phytotoxicity rating (0-100), CHEAL ([12]; 250 g ai/ha): 100 | Pre-emerge Herbicidal Activity, phytotoxicity rating (0-100), DIGSA ([13]; 63 g ai/ha): 100 | Pre-emerge Herbicidal Activity, phytotoxicity rating (0-100), DIGSA ([13]; 250 g ai/ha): 100 | Pre-emerge Herbicidal Activity, phytotoxicity rating (0-100), IPOHE ([14]; 63 g ai/ha): 60 | Pre-emerge Herbicidal Activity, phytotoxicity rating (0-100), IPOHE ([14]; 250 g ai/ha): 100 | Pre-emerge Herbicidal Activity, phytotoxicity rating (0-100), SORHA ([15]; 63 g ai/ha): 90 | Pre-emerge Herbicidal Activity, phytotoxicity rating (0-100), SORHA ([15]; 250 g ai/ha): 90 | Pre-emerge Herbicidal Activity, phytotoxicity rating (0-100), ABUTH ([16]; 63 g ai/ha): 100 | Pre-emerge Herbicidal Activity, phytotoxicity rating (0-100), ABUTH ([16]; 250 g ai/ha): 100 | Pre-emerge Herbicidal Activity, phytotoxicity rating (0-100), CASOB ([17]; 63 g ai/ha): 90 | Pre-emerge Herbicidal Activity, phytotoxicity rating (0-100), CASOB ([17]; 250 g ai/ha): 100 | Pre-emerge Herbicidal Activity, phytotoxicity rating (0-100), ECHCG ([18]; 63 g ai/ha): 70 | Pre-emerge Herbicidal Activity, phytotoxicity rating (0-100), ECHCG ([18]; 250 g ai/ha): 100 | Pre-emerge phytotoxicity rating (0-100), crop damage, CORN ([19]; 63 g ai/ha): 0 | Pre-emerge phytotoxicity rating (0-100), crop damage, CORN ([19]; 250 g ai/ha): 90 | Pre-emerge phytotoxicity rating (0-100), crop damage, RICE ([20]; 63 g ai/ha): 70 | Pre-emerge phytotoxicity rating (0-100), crop damage, RICE ([20]; 250 g ai/ha): 90 | phytotoxicity rating CORN ([21]; 63 g ai/ha): 30 | phytotoxicity rating CORN ([21]; 250 g ai/ha): 90 | phytotoxicity rating RICE ([22]; 63 g ai/ha): 60 | phytotoxicity rating RICE ([22]; 250 g ai/ha): 90

Reference: US6355799B1, “Substituted benzene compounds, process for their preparation, and herbicidal and defoliant compositions containing them” (ISK Americas Incorporated, priority 1997, dated 2002)
